Measured values: ChEMBL document CHEMBL1127207, “Synthesis of ingenol analogs wth affinity for protein kinase C” (Bioorg Med Chem Lett, 1993)

Experiments:
[1] = target: T1, Protein kinase C alpha type (Homo sapiens, UniProt P17252); experiment: Displacement of [3H]PDBU from protein kinase C-alpha (Inactive)
[2] = target: T1, Protein kinase C alpha type; experiment: Displacement of [3H]PDBU from protein kinase C-alpha
Mus musculus = experiment: Tested in vivo for inflammatory potency in the mouse ear; format: functional
[3] = target: T1, Protein kinase C alpha type; experiment: Displacement of [3H]-PDBU from protein kinase C-alpha

Compound | Ki [2] [nM] | Potency (Mus musculus) [nM] | Ki [3] [nM] | also measured
CC1=C[C@@]23CCCC[C@@H](C=C(CO)[C@@H](O)[C@]2(O)[C@H]1O)C3=O |  |  |  | Ki [1]: Not Active
O=C(O[C@H]1CCC23CCCC[C@H](C=C(CO)C[C@H]12)C3=O)c1ccccc1 | 165 |  |  | 
CCCCC(=O)O[C@@H]1[C@@H](C)[C@@]2(O)[C@@H](C=C(CO)C[C@]3(O)C(=O)C(C)=C[C@@H]23)[C@@H]2C(C)(C)[C@]12OC(=O)CCCC |  | 0.067 | 0.54 | 
CC1=CC23C(=O)[C@@H](C=C(CO)[C@@H](O)[C@]2(O)[C@H]1O)[C@H]1[C@@H](C[C@H]3C)C1(C)C |  |  | 240 | 
CC1=CC23C(=O)[C@@H](C=C(COC(=O)c4ccccc4)[C@@H](O)[C@]2(O)[C@H]1OC(=O)c1ccccc1)[C@H]1[C@@H](C[C@H]3C)C1(C)C |  | 0.054 |  | 
CC1=CC23C(=O)[C@@H](C=C(CO)[C@@H](O)[C@]2(O)[C@H]1OC(=O)c1ccccc1)[C@H]1[C@@H](C[C@H]3C)C1(C)C | 0.14 |  |  | 
